Source: patent US20120214847A1, “2-[1-PHENYL-5-HYDROXY-4a-SUBSTITUTED-HEXAHYDROCYCLOPENTA[F]INDAZOL-5-YL]ETHYL PHENYL DERIVATIVES AS GLUCOCORTICOID RECEPTOR LIGANDS” (Merck Sharp & Dohme Corp., priority 2009, published 2012)
Like-named read-outs stand apart in the source and are kept apart here.

Target: T1, human GR (Homo sapiens, UniProt P04150)
T1 construct: naturally expresses the human GR; endogenous in cells
T1 sequence (P04150 1-777): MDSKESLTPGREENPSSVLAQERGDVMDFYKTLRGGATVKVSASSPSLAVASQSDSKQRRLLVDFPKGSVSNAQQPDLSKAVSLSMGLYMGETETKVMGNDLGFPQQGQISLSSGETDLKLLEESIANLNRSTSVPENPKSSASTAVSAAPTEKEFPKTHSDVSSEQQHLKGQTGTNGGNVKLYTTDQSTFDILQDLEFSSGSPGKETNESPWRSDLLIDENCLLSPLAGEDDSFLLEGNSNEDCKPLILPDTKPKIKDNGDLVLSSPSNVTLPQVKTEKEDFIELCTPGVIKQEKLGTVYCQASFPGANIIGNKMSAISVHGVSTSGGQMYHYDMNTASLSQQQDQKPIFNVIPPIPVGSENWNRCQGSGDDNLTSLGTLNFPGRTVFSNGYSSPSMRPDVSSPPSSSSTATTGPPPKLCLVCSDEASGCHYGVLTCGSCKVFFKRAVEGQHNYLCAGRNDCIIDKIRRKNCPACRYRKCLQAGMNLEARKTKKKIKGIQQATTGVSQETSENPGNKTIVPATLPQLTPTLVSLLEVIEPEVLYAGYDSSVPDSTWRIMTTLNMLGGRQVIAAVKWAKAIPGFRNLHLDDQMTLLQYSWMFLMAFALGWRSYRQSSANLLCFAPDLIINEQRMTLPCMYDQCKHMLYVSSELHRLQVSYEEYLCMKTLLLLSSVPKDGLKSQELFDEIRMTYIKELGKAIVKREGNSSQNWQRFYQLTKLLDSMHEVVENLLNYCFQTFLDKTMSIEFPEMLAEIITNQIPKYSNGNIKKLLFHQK
Test: Trans-activation modulation of glucocorticoid receptor (GRAMMER), MMTV-LUC reporter in A549 cells
Format: cell-based
Settings: for Emax: read-out: Transactivation A549 Cells Grammer Emax (%); for EC50: IP = inflection point, read-out: Transactivation A549 Cells Grammer IP
Excerpt: Trans-Activation Modulation of Glucocorticoid Receptor (GRAMMER)
This assay assesses the ability of test compounds to control transcription from the MMTV-LUC reporter gene in lung adenocarcinoma A549 cells or HeLa cells, a human […] cell line that naturally expresses the human GR. The assay measures induction of a modified MMTV LTR/promoter linked to the LUC reporter gene.
The routine transient assay consists of plating 7,000-25,000 cells/well of a white, clear-bottom 96-well plate. Alternatively, 384-well plates can be used at a cell concentration of 10,000/well. The media that the cells are plated in is “exponential growth medium” which consists of phenol red-free RPMI1640 containing 10% FBS, 4 mM L-glutamine, 20 mM HEPES, 10 ug/mL human insulin, and 20 ug/mL gentamicin. Incubator conditions are 37° C. and 5% C02. The transfection is done in batch mode. The cells are trypsinized and counted to the right cell number in the proper amount of fresh media. It is then gently mixed with the FuGene6/DNA 25 mix and plated onto the 96 or 384-well plate, all the wells receive 100 uL or 40 uL, respectively, of medium+lipid/DNA complex then incubated 37° C. overnight. The transfection cocktail consists of serum-free OptiMEM, FuGene6 reagent and DNA. The manufacturer's (Roche Biochemical) protocol for cocktail setup is as follows: The lipid to DNA ratio is approximately 2.5:1 and the incubation time is 20 min at room temperature. Sixteen to 24 h after transfection, the cells are treated with dexamethasone to a final concentration of 10 nM as well as the compound of interest, such that final DMSO (vehicle) concentration is equal to or less than 1%. Each plate also contains samples that are treated with 10 nM dexamethasone alone, which is used as the 100% activity control. The cells are exposed to the compounds for 24 h. After 24 h, the cells are lysed by a Promega cell culture lysis buffer for approximately 30 min and then the luciferase activity in the extracts is assayed in the 96-well format luminometer. In 384 well format, Steady-Glo (Promega) or Steady-Lite (PerkinElmer) can be used by adding an equal volume of reagent to the media present in each well. Activity induced by 10 nM dexamethasone alone is set at 100% activity. Antagonist activity is calculated by determining the decrease in dexamethasone-induced activity in response to compound treatment relative to samples that were treated with dexamethasone alone. Results are expressed as % inhibition of 10 nM dexamethasone activity or as fold of 10 nM dexamethasone activity. This transactivation assay can be performed in an agonist and antagonist mode to identify these different activities.
Activity of test compounds is calculated as the Emax relative to the activity obtained with 300 nM dexamethasone. […] The exemplified tissue selective glucocorticoid receptor modulators of the present invention display agonist activity in this assay of greater than 5% and less than 100%, and maximal transactivation activity less then maximal transrepression activity. The action of compounds is also tested in an antagonist mode (Anti-GRAMMER) in which the cells are treated with medium containing an agonist such as 10 nM DEX and the ability of agents to inhibit the activation by an agonist is measured.

[1] = A549, A549 cells, Emax relative to the activity obtained with 300 nM dexamethasone
[2] = A549 cells, Emax relative to the activity obtained with 300 nM dexamethasone

Emax [1] | EC50 (A549 cells) | Transactivation A549 Cells Grammer Emax (%) [2] | SMILES | Emax [2]
21% | 49 nM |  | CC[C@]12Cc3cnn(-c4ccc(F)cc4)c3C=C1CC[C@@]2(O)CC(O)c1ccccn1 (stereo partly drawn) [Example 68, (4aS,5R)-4a-Ethyl-1-(4-fluorophenyl)-5-[2-hydroxy-2-(pyridin-2-yl)ethyl]-1,4,4a,5,6,7-hexahydrocyclopenta[f]indazol-5-ol] | 
31% | 142 nM |  | CC[C@]12Cc3cnn(-c4ccc(F)cc4)c3C=C1CC[C@@]2(O)CC(O)c1ncccc1F (stereo partly drawn) [Example 76, (4aS,5R)-4a-Ethyl-1-(4-fluorophenyl)-5-[2-(3-fluoropyridin-2-yl)-2-hydroxyethyl]-1,4,4a,5,6,7-hexahydrocyclopenta[f]indazol-5-ol] | 
28% | 138 nM |  | CC[C@]12Cc3cnn(-c4ccc(F)cc4)c3C=C1CC[C@@]2(O)CCc1nccc(C2CC2)c1C(=O)OC [Example 41, Methyl 4-cyclopropyl-2-{2-[(4aS,5R)-4a-ethyl-1-(4-fluorophenyl)-5-hydroxy-1,4,4a,5,6,7-hexahydrocyclopenta[f]indazol-5-yl]ethyl}pyridine-3-carboxylate] | 
 | 195 nM | 22% | CC[C@]12Cc3cnn(-c4ccc(F)cc4)c3C=C1CC[C@@]2(O)CCc1ccccc1C(O)C(N)=O (stereo partly drawn) [Example 25, 2-(2-{2-[(4aS,5R)-4a-Ethyl-1-(4-fluorophenyl)-5-hydroxy-1,4,4a,5,6,7-hexahydrocyclopenta[f]indazol-5-yl]ethyl}phenyl)-2-hydroxyacetamide] | 
13% | 187 nM |  | CC[C@]12Cc3cnn(-c4ccc(F)cc4)c3C=C1CC[C@@]2(O)CC(O)c1cc(C#N)ccn1 (stereo partly drawn) [Example 72, 2-{2-[(4aS,5R)-4a-Ethyl-1-(4-fluorophenyl)-5-hydroxy-1,4,4a,5,6,7-hexahydrocyclopenta[f]indazol-5-yl]-1-hydroxyethyl}pyridine-4-carbonitrile] | 

More lines, now with the values behind:

SMILES | Emax [1] | EC50 (A549 cells) | Transactivation A549 Cells Grammer Emax (%) [2] | Emax [2]
COc1ccnc(CC[C@]2(O)CCC3=Cc4c(cnn4-c4ccc(F)cc4)C[C@@]32C2CC2)c1C(F)C(N)=O (stereo partly drawn) [Example 66, 2-(2-{2-[(4aR,5R)-4a-Cyclopropyl-1-(4-fluorophenyl)-5-hydroxy-1,4,4a,5,6,7-hexahydrocyclopenta[f]indazol-5-yl]ethyl}-4-methoxypyridin-3-yl)-2-fluoroacetamide] |  | 7 nM |  | 45%
NS(=O)(=O)c1ccccc1CC[C@]1(O)CCC2=Cc3c(cnn3-c3cccnc3)C[C@@]21C1CC1 [Example 24, 2-{2-[(4aR,5R)-4a-Cyclopropyl-5-hydroxy-1-(pyridin-3-yl)-1,4,4a,5,6,7-hexahydrocyclopenta[f]indazol-5-yl]ethyl}benzenesulfonamide] | 35% | 24 nM |  | 
CC(C)(CO)NC(=O)c1ccccc1CC[C@]1(O)CCC2=Cc3c(cnn3-c3ccc(F)cc3)C[C@@]21C1CC1 [Example 45, 2-{2-[(4aR,5R)-4a-Cyclopropyl-1-(4-fluorophenyl)-5-hydroxy-1,4,4a,5,6,7-hexahydrocyclopenta[f]indazol-5-yl]ethyl}-N-(1-hydroxy-2-methylpropan-2-yl)benzamide] | 39% | 22 nM |  | 
NC(=O)CNC(=O)c1cccnc1CC[C@]1(O)CCC2=Cc3c(cnn3-c3ccc(F)cc3)C[C@@]21C1CC1 [Example 43, N-(2-Amino-2-oxoethyl)-2-{2-[(4aR,5R)-4a-cyclopropyl-1-(4-fluorophenyl)-5-hydroxy-1,4,4a,5,6,7-hexahydrocyclopenta[f]indazol-5-yl]ethyl}pyridine-3-carboxamide] | 47% | 260 nM |  | 
NC(=O)c1ccccc1CC[C@]1(O)CCC2=Cc3c(cnn3-c3ccc(F)cc3)C[C@@]21C1CC1 [Example 23, 2-{2-[(4aR,5R)-4a-Cyclopropyl-1-(4-fluorophenyl)-5-hydroxy-1,4,4a,5,6,7-hexahydrocyclopenta[f]indazol-5-yl]ethyl}benzamide] | 21% | 37 nM |  | 
